Tests used:
Type in all cases: cell-based, human
[1] = test system: Ishikawa cells; assay: MTT cell viability assay, Ishikawa type I endometrial cancer cell line; conditions: 72 hours; for cytotoxicity (cell viability, % vs vehicle) in combination: in double with cannabidiol (10, 15 and 20 microM CBD), FIG. 3-4; for cytotoxicity (cell viability, % vs vehicle): phytocannabinoid alone, FIG. 1; for cytotoxicity (cell viability, % vs vehicle) in combination with chemotherapeutic drugs: with paclitaxel (PAC), doxorubicin (DOX) and cisplatin (CIS), FIG. 7-10
Description: (§1) Ishikawa is a well differentiated type I cell line, was purchased from Sigma Aldrich (Milan, Italy). Ishikawa cells were grown in EMEM medium (Lonza, Milan, Italy), supplemented with 5% fetal bovine serum (FBS), 2 mM/L of glutamine, 100 IU/ml of penicillin, and […] of streptomycin. Primary EC cells PCEM004A, poorly differentiated mixed type I/II cell line, was grown in RPMI1640, supplemented with 20% FBS, 2 mM/L of glutamine, 100 IU/ml of penicillin, and […] of streptomycin. Immortalized human endometriotic cell line (12Z) was generated by infecting cells, obtained from a person undergoing laparoscopy, with SV40 virus. This cell line was purchased by Applied Biological Materials Inc and was maintained in Prigrow III medium supplemented with 20% no-heat inactivated FBS, 100 IU/ml of penicillin and […] of streptomycin. Human pancreatic ductal adenocarcinoma PANC-1 cell line was purchased by Sigma Aldrich (Milan, Italy) and cultured in DMEM high glucose medium (EuroClone, Milan, Italy) supplemented with 10% FBS, 2 mM L-glutamine, 100 IU/mL penicillin, […] streptomycin and 1 mM sodium pyruvate. The human glioblastoma U251 cell line (grade IV), obtained from European Collection of Cell Cultures (ECACC, Salisbury, UK), was maintained in EMEM supplemented with 10% FBS, 2 mmol/L L-glutamine, 100 IU/mL penicillin and 100 μg streptomicin. Media were changed every 48 hours until cells were 90% confluent. All cell lines were maintained at 37 C with 5% CO2 and 95% humidity.
(§2) EC cell lines, PANC-1, U251, and 12Z (3×10^4 cells/ml) were plated in 96-well plates, in a final volume of 100 microl/well. After 24 hours, treatments or vehicles were added for 72 hours. At least six replicates were used for each treatment. At the indicated time point, cell viability was assessed by adding 0.8 mg/ml of 3-[4,5-dimethylthiazol-2-yl]-2,5 diphenyl tetrazolium bromide (MTT, Sigma-Aldrich) to the media. After 3 hours, the plates were centrifuged, the supernatant was removed, and the pellet was solubilized with 100 microl/well of DMSO. The absorbance of the samples against a background control (medium alone) was measured at 570 nm using an ELISA reader microliter plate (BioTek Instruments, Winooski, VT, United States). IC50 was calculated by PRISM 5.0a software, for single phytocannabinoids.

[2] = test system: PCEM004A cells; assay: MTT cell viability assay, primary mixed type PCEM004A endometrial cancer cell line; conditions: 72 hours; for cytotoxicity (cell viability, % vs vehicle): phytocannabinoid alone, FIG. 5; for cytotoxicity (cell viability, % vs vehicle) in combination with chemotherapeutic drugs: with paclitaxel (PAC), doxorubicin (DOX) and cisplatin (CIS), FIG. 7-10
Description: as §1, §2

[3] = test system: PANC-1 cells; assay: MTT cell viability assay, PANC-1 pancreatic ductal adenocarcinoma cell line; conditions: PANC-1, 72 hours post-treatment, FIG. 11
Description: as §1, §2

[4] = test system: U251 cells; assay: MTT cell viability assay, U251 glioblastoma cell line; conditions: U251, 72 hours post-treatment, FIG. 13
Description: as §1, §2

[5] = test system: 12Z endometriotic cell line; assay: MTT cell viability assay, 12Z endometriotic cell line; conditions: single administration, 72 hours post-treatment, FIG. 15-20
Description: as §1, §2

[6] = test system: 12Z endometriotic cell line; assay: Transwell invasion assay, 12Z endometriotic cells; conditions: non-cytotoxic dose, 24 hours, Transwell/Matrigel, major effect order THC>CBG>CBD>CBDV>CBN>CBC, FIG. 22-30
Description: as §1
12Z cell invasion was evaluated by Transwell invasion assay using Transwell chambers (BD Biosciences, Franklin Lakes, NJ, USA) characterized by the upper face of the polycarbonate membrane covered with 1 mg/ml Matrigel. A total of 750 μl cell culture medium supplemented with 10% FBS was added in the lower chamber. Serum free culture medium ([…]) containing 2.5×10^4 12Z endometriotic cells was plated into the upper chamber with the appropriate treatment. After 24 hours of incubation, the cells remaining in the upper chamber were removed by cotton swabs. The cells on the lower and inner surface of the membrane were fixed in cold methanol, stained with hoechst and observed using a fluorescence microscope (BX51 fluorescence microscope, Olympus, Milan, Italy). A total of ten fields at ×10 magnification were selected at random to measure the average cell coverage using ImageJ software version 1.45s (National Institutes of Health, Bethesda, MD, USA). The experiments were performed in triplicate at least three times independently.

[7] = test system: endometrial cancer cell lines; assay: MTT cell viability, endometrial cancer cell lines tested (Ishikawa and PCEM004A, stated jointly); conditions: for dose dependence of effect on cell viability: individual phytocannabinoids
Description: as §1, §2

[8] = test system: CXCL8; assay: RT/PCR TaqMan array, CXCL8 gene expression in 12Z cells; conditions: 48 hours, CBG, CBC, CBN 30 microM, CBD, CBDV 10 microM, THC 40 microM
Description: (§3) Total RNA from untreated or single treated 12Z cell line with CBD, CBG, CBC, CBN, CBDV and THC was extracted using Rneasy Mini kit (Qiagen, Milan, Italy). One microgram of total RNA from each sample was subjected to reverse transcription in a total volume of 20 μL using the High-Capacity cDNA Archive Kit (Applied Biosystem, Foster City, PA, USA) according to the instructions. cDNAs were analyzed by qRT-PCR performed using an IQ5 Multicolor Real time PCR Detection system. Quantitative real-time gene expression was performed with the TaqMan® Array Plate, containing 15 associated cytokine genes and beta-actin as endogenous control gene, was purchased (Thermo Fisher, Grand Island, NY, USA) and used to evaluate the treatments in modulating 12Z-related genes. Measurement of housekeeping gene (beta-Actin) on the samples was used to normalize mRNA content. The gene expression levels of treated cell lines were expressed as normalized fold compared with vehicle-treated cells.

[9] = test system: IL-6; assay: RT/PCR TaqMan array, IL-6 gene expression in 12Z cells; conditions: 48 hours, CBG, CBC, CBN 30 microM, CBD, CBDV 10 microM, THC 40 microM
Description: as §3

| Structure (SMILES) | cytotoxicity (cell viability, % vs vehicle) in combination [1] | cytotoxicity (cell viability, % vs vehicle) [1] | cytotoxicity (cell viability, % vs vehicle) in combination with chemotherapeutic drugs [1] | cytotoxicity (cell viability, % vs vehicle) [2] | cytotoxicity (cell viability, % vs vehicle) in combination with chemotherapeutic drugs [2] | cytotoxicity (cell viability, % vs vehicle) [3] | cytotoxicity (cell viability, % vs vehicle) [4] | cytotoxicity (cell viability, % vs vehicle) [5] | endometriosis cell invasion [6] | dose dependence of effect on cell viability ([7]; endometrial cancer cell lines) | CXCL8 gene expression (normalized versus vehicle) [8] | efficacy in reducing cell viability (rank among individual phytocannabinoids) ([7]; endometrial cancer cell lines, order: CBN, followed by CBDV, CBG, THC and CBC) | efficacy of phytocannabinoid combinations in reducing cell viability ([7]; endometrial cancer cells, combinations of phytocannabinoids) | IL-6 gene expression (normalized versus vehicle) [9] |
| --- | --- | --- | --- | --- | --- | --- | --- | --- | --- | --- | --- | --- | --- | --- |
| CCCCCc1cc(O)c2c(c1)OC(C)(CCC=C(C)C)C=C2 (stereo not drawn) [CBC, 2-methyl-2-(4-methylpent-3-enyl)-7-pentylchromen-5-ol] | induced cytotoxicity | induced cytotoxicity | induced cytotoxicity | induced cytotoxicity | induced cytotoxicity | induced cytotoxicity | induced cytotoxicity | induced cytotoxicity | effective in reducing endometriosis cells invasion | dose dependent effect |  |  |  |  |
| CCCCCc1cc(O)c2c(c1)OC(C)(C)c1ccc(C)cc1-2 [CBN, 6,6,9-trimethyl-3-pentylbenzo[c]chromen-1-ol] | induced cytotoxicity | induced cytotoxicity | induced cytotoxicity | induced cytotoxicity | induced cytotoxicity | induced cytotoxicity | induced cytotoxicity | induced cytotoxicity | effective in reducing endometriosis cells invasion |  | reduced | highest | amplified the effect of all cannabinoids |  |
| CCCCCc1cc(O)c2c(c1)OC(C)(C)[C@@H]1CCC(C)=C[C@@H]21 [THC, (6aR,10aR)-6,6,9-trimethyl-3-pentyl-6a,7,8,10a-tetrahydrobenzo[c]chromen-1-ol, reference compound] | induced cytotoxicity | induced cytotoxicity | induced cytotoxicity | induced cytotoxicity | induced cytotoxicity | induced cytotoxicity | induced cytotoxicity | induced cytotoxicity | effective in reducing endometriosis cells invasion | dose dependent effect |  |  |  | reduced |

Source: patent US20240299424A1, “USE OF PHYTOCANNABINOIDS FOR TREATING ENDOMETRIAL CANCER AND ENDOMETRIOSIS” (INTEGRATIVE THERAPY DISCOVERY LAB S.R.L., priority 2021, published 2024)
